This is an account of results in article PMC5839262, “Inhibitors of bacterial protease enzymes for periodontal therapy” (Clinical and Experimental Dental Research, 2015).

Where two headings read alike, the source gives them in different places. Where a SMILES comes first, the peptide text is derived from it.

The test system of one data set is Rgp. The data set is described as follows: Rgp gingipain activity, fluorescent assay with benzoyl‐R‐AMC in Pg cell suspensions. The following applies: for IC50: 0.2 mM benzoyl‐R‐AMC, 15 min, read-out: concentration causing 50% inhibition of Rgp activity; for effect on Rgp activity: concentrations up to 1 × 10^−4 M, results not shown. It is filed as biochemical, Porphyromonas gingivalis. How it is done: (§1) To obtain culture media for measuring secreted gingipain activity, we removed bacteria by centrifugation followed by filtration through 0.2‐µm filters, and we supplemented the medium with 0.2 mM PMSF to block any serine‐protease activity. To measure cell‐associated activity, we resuspended bacteria to an optical density of 4.0 at 600 nm (4 × 10^9 CFU/mL) in DPBS, and PMSF was added. Portions of the media and bacterial suspensions were frozen in liquid nitrogen and stored at −80°C.
(§2) The gingipain assay was adapted from procedures of Chen et al. (2001) and Suwannakul et al. (2010). To measure activity of Rgp or Kgp, respectively, we incubated various volumes of media or bacterial suspensions 10 min at 37°C in DPBS with 1 mM L‐cysteine to ensure that the gingipain active‐site cysteine was in the reduced, active form, and then we added the substrate benzoyl‐R‐AMC or Boc‐VLK‐AMC to give 0.2 mM substrate in a final volume of 0.1 mL. The incubation was continued 15 min at 37°C in black multiwell plates. Incubations were stopped by adding 50 μL of 1.5 mM TLCK, an irreversible inhibitor of serine and cysteine proteases. Fluorescence was measured with a fluorescence plate reader (SpectraMax Gemini EM, Molecular Devices, Sunnyvale, CA) with excitation at 365 nm and emission at 460 nm to measure hydrolysis of the substrate and release of the fluorescent product.
(§3) To measure effects of inhibitors on Rgp or Kgp activity, we diluted conditioned media fivefold or bacterial suspensions fiftyfold with DPBS, and we selected a diluted sample volume of 20 μL or less that gave a strong fluorescent signal, and we incubated the sample 15 min in DPBS with 0.2 mM substrate and various levels of protease inhibitors.

A further data set has as its target Kgp (Porphyromonas gingivalis, UniProt B2RLK2). Nature of the data set: Kgp gingipain activity, fluorescent assay with Boc‐VLK‐AMC in Pg cell suspensions. In kind it is biochemical. The method, then:
as §1, §2, §3

Another data set concerns cathepsin B. More on the design: method as in McConnell et al., 1993. The settings on record: ref McConnell et al., 1993; cited from earlier work.
The next data set concerns cultured human cells. Further details: method as in Kadowaki et al., 2004; Kataoka et al., 2014. The following applies: ref Kadowaki et al., 2004; Kataoka et al., 2014; cited from earlier work.
In the next data set the test system is Pg. The data set is described as follows: Bactericidal activity, LIVE/DEAD BacLight viability assay. In kind it is cell-based, Porphyromonas gingivalis. The settings on record: 1 h; for bactericidal activity: both Pg strains, concentrations up to 1 × 10^−4 M. How it is done:
Pg bacteria were collected by centrifugation and diluted to 2 × 10^8 CFU/mL in isotonic saline at 25°C. Pg (10^8 CFU/mL) were then incubated with various concentrations of protease inhibitors at 37°C with gentle mixing in 0.1 mL incubation mixtures in black multiwell plates inside AnaeroGen™ Compact pouches (Oxoid Corporation, Nepean, ON, Canada) to lower the oxygen (O2) concentration. After 1 h, the number of live bacteria per milliliter was measured with a LIVE/DEAD BacLight™ Bacterial Viability kit (Invitrogen, Inc., Carlsbad, CA). The assay determines the number of live bacteria based on entry of the fluorescent dyes SYTO 9 and propidium iodide into the bacteria. SYTO 9 enters both live and dead bacteria and binds to DNA, giving a green fluorescence. Propidium iodide enters only dead bacteria and binds to DNA, giving a red fluorescence. A 0.1 mL portion of 2× BacLight dye mixture was added to the bacteria in the wells, and the plate was incubated 15 min at 37°C in an AnaeroGen™ pouch in the dark. Immediately following removal of the plate from the pouch, fluorescence was measured in a fluorescence plate reader with excitation at 485 nm. Green fluorescence of SYTO 9 was measured at 538 nm, and red fluorescence of propidium iodide was measured at 612 nm. Standard curves were prepared with various ratios of live and dead bacteria, and the number of live bacteria was determined from the ratio of green to red fluorescence. Control experiments were performed in which Pg viability was measured by diluting, plating on blood agar plates, and counting colonies after 1 to 2 weeks at 37°C under anaerobic conditions to confirm that the plating and fluorescent assays provided similar results. Toxicity of the protease inhibitors to E. coli was also measured. Assay conditions were the same as for Pg except that incubations were in air.

Another data set is described as follows: Water solubility. It is filed as physicochemical. The following applies: stated in discussion.
In another data set the test system is E. coli. Nature of the data set: Bactericidal activity, LIVE/DEAD BacLight viability assay. In kind it is cell-based, Escherichia coli. The following applies: 1 h. The method, then: Escherichia coli strain 43827 was purchased from the American Type Culture Collection and grown in TSB overnight with shaking in air at 37°C. Suspensions were serially diluted in saline and plated on TSB agar to determine CFU per milliliter.
Pg bacteria were collected by centrifugation and diluted to 2 × 10^8 CFU/mL in isotonic saline at 25°C. Pg (10^8 CFU/mL) were then incubated with various concentrations of protease inhibitors at 37°C with gentle mixing in 0.1 mL incubation mixtures in black multiwell plates inside AnaeroGen™ Compact pouches (Oxoid Corporation, Nepean, ON, Canada) to lower the oxygen (O2) concentration. After 1 h, the number of live bacteria per milliliter was measured with a LIVE/DEAD BacLight™ Bacterial Viability kit (Invitrogen, Inc., Carlsbad, CA). […] SYTO 9 enters both live and dead bacteria and binds to DNA, giving a green fluorescence. Propidium iodide enters only dead bacteria and binds to DNA, giving a red fluorescence. […] Immediately following removal of the plate from the pouch, fluorescence was measured in a fluorescence plate reader with excitation at 485 nm. Green fluorescence of SYTO 9 was measured at 538 nm, and red fluorescence of propidium iodide was measured at 612 nm. Standard curves were prepared with various ratios of live and dead bacteria, and the number of live bacteria was determined from the ratio of green to red fluorescence. […]

For the compound `NC(N)=NCCC[C@H](NC(=O)[C@@H]1CCCN1C(=O)[C@H](N)Cc1ccccc1)C(=O)CCl` [PPACK, D‐Phe‐Pro‐Arg‐chloromethylketone], the IC50 in the data set with Rgp (Pg 33277 cell suspensions) was 2 nM; on Kgp (Pg 33277 cell suspensions, 0.2 mM Boc‐VLK‐AMC, 15 min, read-out: concentration causing 50% inhibition of Kgp activity) it was 20 nM.

In the case of `CC(=O)N[C@@H](CC(C)C)C(=O)N[C@H](C(=O)N[C@H](C=O)CCCCN)C(C)C` [cathepsin B inhibitor II, Ac‐Leu‐Val‐Lys‐aldehyde] (Ac-Leu-Val-Lys-aldehyde), in the data set with cathepsin B, the “effectiveness as inhibitor of cathepsin B relative to leupeptin” value is listed as approximately 100 times. The “effect on Rgp activity” value in the data set on Rgp is given as “no effect”. On Kgp, the IC50 is 50 nM.

On to `CN(NC(=O)CC[C@H](NC(=O)OCc1ccccc1)C(=O)N[C@@H](CCCCN)C(=O)C(=O)NCc1ccccc1)c1ccccc1` [KYT‐36, carbobenzoxy‐Glu(NHN(CH3)Ph)‐Lys‐CO‐NHCH2Ph], for which, in the data set with cultured human cells, the “toxicity to cultured human cells” value is listed as “non‐toxic”. Besides, in the data set on Pg, the bactericidal activity result is reported as “not bactericidal”. Further, the “effect on Rgp activity” value with Rgp is “did not inhibit Rgp”. On Kgp, the IC50 is 1 nM. In addition, the water solubility result in the data set “Water solubility” is recorded as “water soluble”.

Turning to `CN(C)C(=O)[C@H](CCCCN)NC(=O)C(=O)[C@H](CCCNC(=N)N)NC(=O)[C@H](CCCCN)NC(=O)OCc1ccccc1` [KYT‐1, carbobenzoxy‐Lys‐Arg‐CO‐Lys‐N(CH3)2], the “toxicity to cultured human cells” value in the data set on cultured human cells is “non‐toxic”. For the same compound, in the data set on Pg, the bactericidal activity result is “not bactericidal”. For the same compound, the IC50 stood at 2 nM in the data set with Rgp (Pg 33277 cell suspensions) and 20000 nM against Kgp. Further, the “difference in concentrations causing 50% inhibition of Rgp and Kgp” value in the data set on Rgp (Rgp versus Kgp, cell suspensions) is 10,000 fold. The water solubility result in “Water solubility” was “water soluble”.

In the case of `Cc1cc(C)c(C(=O)OCC(=O)[C@H](CCCCN)NC(=O)[C@H](Cc2ccccc2)NC(=O)OCc2ccccc2)c(C)c1` [Z‐FK‐ck, Z‐Phe‐Lys‐2,4,6‐trimethylbenzoyloxy‐methylketone], the “concentration causing 50% loss of viability” value came to 30 µM with E. coli (37°C, in air) and 30 µM in the data set on Pg (Pg 10^8 CFU/mL, 37°C, low oxygen). For the same compound, the bactericidal activity result in the data set with E. coli (concentrations up to 1 × 10^−4 M) and with Pg was “significant bactericidal activity” throughout. For the same compound, the IC50 in the data set on Rgp (Pg 33277 cell suspensions) is 2000 nM; at Kgp, 0.5 nM.

With `CC(C)C[C@H](NC(=O)[C@H]1O[C@@H]1C(=O)O)C(=O)NCCCCN=C(N)N` (relative stereo) [E64, trans‐epoxysuccinyl‐L‐leucylamido‐(4‐guanidino)butane], in the data set with Rgp (Pg 33277 cell suspensions), the “concentration causing 90% inhibition of Rgp activity” value is 1 mM and the IC50 turned out to be 50000 nM. On Kgp (any concentration tested, Pg 33277 cell suspensions), the “effect on Kgp activity” value is on record as “no effect”.

Turning to `CC(=O)N[C@@H](CC(C)C)C(=O)N[C@@H](CC(C)C)C(=O)N[C@H](C=O)CCCNC(=N)N` [leupeptin, Ac‐Leu‐Leu‐Arg‐aldehyde], the IC50 in the data set on Rgp (Pg 33277 cell suspensions) was found to be 20 nM. Moreover, at Kgp (concentrations up to 1 × 10^−4 M, results not shown), the “effect on Kgp activity” value is listed as “no effect”.
